Measured values published in US5314891A, “Benzenesulphonamide derivatives” (Imperial Chemical Industries PLC, priority 1991, dated 1994).

Tests used:
5-LO [1] = target: T1, 5-LO (Homo sapiens, UniProt P09917); assay: Test a) in vitro human blood assay, A23187 challenge, LTB4 radioimmunoassay; format: cell-based; settings: heparinised human blood
T1 construct: incubating a test compound with heparinised human blood, prior to challenge with the calcium ionphore A23187; endogenous in cells; host or cells: blood cells in heparinised human blood
T1 sequence (P09917 1-674): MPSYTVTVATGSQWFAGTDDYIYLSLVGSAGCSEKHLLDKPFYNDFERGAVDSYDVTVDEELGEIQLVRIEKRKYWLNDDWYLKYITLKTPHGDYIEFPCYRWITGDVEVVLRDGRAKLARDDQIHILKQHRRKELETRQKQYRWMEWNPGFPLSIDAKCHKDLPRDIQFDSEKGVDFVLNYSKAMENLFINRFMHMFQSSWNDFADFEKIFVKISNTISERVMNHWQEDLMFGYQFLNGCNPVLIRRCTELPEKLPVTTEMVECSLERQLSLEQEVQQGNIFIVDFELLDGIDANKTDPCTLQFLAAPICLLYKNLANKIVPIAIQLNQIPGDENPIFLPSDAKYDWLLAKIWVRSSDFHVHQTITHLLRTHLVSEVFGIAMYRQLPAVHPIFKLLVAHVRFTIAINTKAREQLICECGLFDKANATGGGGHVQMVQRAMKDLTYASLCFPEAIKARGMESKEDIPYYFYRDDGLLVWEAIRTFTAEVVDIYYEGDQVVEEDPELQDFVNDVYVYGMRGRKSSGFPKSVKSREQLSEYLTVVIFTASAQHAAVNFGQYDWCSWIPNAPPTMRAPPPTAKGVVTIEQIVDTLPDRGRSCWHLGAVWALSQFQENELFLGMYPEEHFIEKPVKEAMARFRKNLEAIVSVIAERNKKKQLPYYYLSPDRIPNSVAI
Method: (§1) As stated previously, the novel compounds of the formula I are inhibitors of the enzyme 5-LO.
a) An in vitro assay system involving incubating a test compound with heparinised human blood, prior to challenge with the calcium ionphore A23187 and then indirectly measuring the inhibitory effects on 5-LO by assaying the amount of LTB4 using specific radioimmunoassays described by Carey and Forder (Prostaglandins, Leukotrienes Med., 1986, 22, 57; Prostaglandins, 1984, 28, 666; Brit. J. Pharmacol., 1985, 84, 34P) which involve the use of a protein-LTB4 conjugate produced using the procedure of Young et alia (Prostaglandins, 1983, 26(4), 605-613). The effects of a test compound on the enzyme cyclooxygenase (which is involved in the alternative metabolic pathway for arachidonic acid and gives rise to prostaglandins, thromboxanes and related metabolites) may be measured at the same time using the specific radioimmunoassay for thromboxane B2 (TxB2) described by Carey and Forder (see above). This test provides an indication of the effects of a test compound against 5-LO and also cyclooxygenase in the presence of blood cells and proteins. It permits the selectivity of the inhibitory effect on 5-LO or cyclooxygenase to be assessed.

5-LO [2] = target: T2, 5-LO (Rattus norvegicus, UniProt P12527); assay: Test c) in vivo zymosan-induced LTB4 liberation in rat air pouch; settings: male rats, oral
T2 construct: liberation of LTB4 induced by zymosan within an air pouch generated within the subcutaneous tissue of the back of male rats; from tissue
T2 sequence (P12527 1-673): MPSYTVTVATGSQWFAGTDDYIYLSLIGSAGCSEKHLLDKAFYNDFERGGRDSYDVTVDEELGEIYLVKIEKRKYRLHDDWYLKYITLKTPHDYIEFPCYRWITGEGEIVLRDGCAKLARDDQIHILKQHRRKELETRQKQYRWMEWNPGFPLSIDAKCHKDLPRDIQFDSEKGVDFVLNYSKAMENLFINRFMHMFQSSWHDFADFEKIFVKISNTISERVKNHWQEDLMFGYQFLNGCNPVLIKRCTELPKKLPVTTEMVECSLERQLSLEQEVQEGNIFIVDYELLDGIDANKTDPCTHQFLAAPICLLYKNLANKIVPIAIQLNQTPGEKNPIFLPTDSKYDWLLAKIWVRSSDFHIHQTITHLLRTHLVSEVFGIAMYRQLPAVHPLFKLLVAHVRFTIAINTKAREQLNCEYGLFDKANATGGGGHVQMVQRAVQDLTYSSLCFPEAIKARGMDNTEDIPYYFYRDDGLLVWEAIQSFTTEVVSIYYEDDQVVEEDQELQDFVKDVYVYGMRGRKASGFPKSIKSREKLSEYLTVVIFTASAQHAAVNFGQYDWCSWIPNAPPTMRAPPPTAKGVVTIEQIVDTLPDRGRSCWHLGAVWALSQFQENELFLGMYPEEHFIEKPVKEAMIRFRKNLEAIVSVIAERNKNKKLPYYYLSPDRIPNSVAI
Method: as §1
c) An in vivo system involving measuring the effects of a test compound administered orally against the liberation of LTB4 induced by zymosan within an air pouch generated within the subcutaneous tissue of the back of male rats. The rats are anaesthetised and air pouches are formed by the injection of sterile air (20 ml). A further injection of air (10 ml) is similarly given after 3 days. At 6 days after the initial air injection the test compound is administered (usually orally as the suspension produced when a solution of the test compound in dimethylsulphoxide is added to hydroxypropylmethylcellulose), followed by the intrapouch injection of zymosan (1 ml of a 1% suspension in physiological saline). After 3 hours the rats are killed, the air pouches are lavaged with physiological saline, and the specific radioimmunoassay described above is used to assay LTB4 in the washings. This test provides an indication of inhibitory effects against 5-LO in an inflammatory milieu.

Row | Structure (SMILES) | IC50 (5-LO [1]) [nM] | ED50 (5-LO [2]) [mg/kg]
1 | COC1(c2cccc(Sc3ccc(S(=O)(=O)Nc4nccs4)cc3)c2)CCOCC1 [Example 6, 4-[3-(4-methoxytetrahydropyran-4-yl)phenylthio]-N-(2-thiazolyl)benzenesulphonamide] | 1000 | 1.5
2 | COC1(c2cccc(Sc3ccc(S(=O)(=O)Nc4ccc(Cl)cn4)cc3)c2)CCOCC1 [Example 4, N-(5-chloropyrid-2-yl)-4[3-(4-methoxytetrahydropyran-4-yl)phenylthio]benzenesulphonamide] | 4200 | 1.5
